Data on 57 compounds can be found in US10519133B2, “Vinyl compounds as FGFR and VEGFR inhibitors” (MEDSHINE DISCOVERY INC., priority 2015, dated 2019).

Some results are limits rather than exact numbers.

T1 sequence (P11362 22-822): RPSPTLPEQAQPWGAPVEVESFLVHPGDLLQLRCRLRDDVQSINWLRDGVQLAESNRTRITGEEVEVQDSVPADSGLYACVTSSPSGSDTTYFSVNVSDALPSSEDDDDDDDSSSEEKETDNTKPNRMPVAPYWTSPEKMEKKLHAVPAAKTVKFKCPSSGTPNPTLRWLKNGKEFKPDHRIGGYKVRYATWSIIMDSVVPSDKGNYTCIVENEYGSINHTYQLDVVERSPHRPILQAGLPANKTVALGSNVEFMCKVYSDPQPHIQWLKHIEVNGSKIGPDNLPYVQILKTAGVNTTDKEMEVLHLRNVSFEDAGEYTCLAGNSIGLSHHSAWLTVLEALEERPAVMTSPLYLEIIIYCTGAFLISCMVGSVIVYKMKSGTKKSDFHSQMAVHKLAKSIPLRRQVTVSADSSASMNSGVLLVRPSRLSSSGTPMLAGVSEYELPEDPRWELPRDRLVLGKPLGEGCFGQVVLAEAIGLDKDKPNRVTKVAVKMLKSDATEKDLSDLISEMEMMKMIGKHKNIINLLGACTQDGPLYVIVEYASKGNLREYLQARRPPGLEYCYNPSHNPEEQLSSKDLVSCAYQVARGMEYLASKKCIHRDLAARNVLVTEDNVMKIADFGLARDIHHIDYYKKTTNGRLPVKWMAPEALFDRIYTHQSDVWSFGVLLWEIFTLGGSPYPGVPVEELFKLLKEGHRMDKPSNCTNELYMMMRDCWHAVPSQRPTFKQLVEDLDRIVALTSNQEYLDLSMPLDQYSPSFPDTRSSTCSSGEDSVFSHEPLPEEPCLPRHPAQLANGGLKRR

The assay has as its target T1, FGFR1 (Homo sapiens, UniProt P11362).
T1 construct: purchased Invitrogen PV4105
Put plainly: Z′-LYTE Detection Kinase Assay, in vitro enzymatic activity. In kind it is biochemical. The conditions noted are these: 0.6 nM FGFR1, 2 uM Tyr4 peptide, 10 uM ATP, 60 min 23° C. The protocol: To measure enzyme activity by Z′-LYTE™ Detection Kinase Assay, and to evaluate the inhibitory effect of the compounds on FGFR1 using IC50 value of the compounds as an indicator. […]
Reaction Buffer: 50 mM Hepes (pH 7.5), 10 mM MgCl2, 1 mM EGTA, 0.01% Brij-35, 1 mM DTT, 2 mM MnCl2 0.6 nM FGFR1, 2 uM Tyr4 peptide and 10 uM ATP in reaction buffer (50 mM Hepes, pH 7.5, 10 mM MgCl2, 0.01% BRIJ-35, 1 mM EGTA, 4 mM MnCl2, 2 mM DTT). a. Diluting the compounds with DMSO to 10 mM, 3-fold dilution, 11 gradients, duplicate wells. b. Diluting the compound by 1:25 into middle plate at Bravo Automatic Liquid Station, then transferring 2.5 ul to the reaction plate to ensure the final DMSO concentration to be 1%. c. Transferring 5 ul of enzyme/substrate buffer into each well d. Using Multidrop Liquid Workstation to sequentially add ATP solution to each well e. Centrifuging at 1000 rpm for 1 minute f. Placing the reaction plate in an incubator at 23° C. to react for 60 min. a. Preparing a 1:128 mixture of Development Regent B and Development Buffer b. Adding 5 ul to each well and centrifuging at 1000 rpm for 1 minute c. Placing the reaction plate in a thermostat (23° C.) after centrifuging for 90 minutes, removing and reading on Envision (Perkin Elmer) Plate Reader
D. Analyzing Data: Analyzing Data Using XLFIT (IDBS) and Calculating IC50 Values for the Compounds.
The compound `C[C@@H](Oc1ccc2[nH]nc(/C(F)=C\c3ccc(CN4CCOCC4)nc3)c2c1)c1c(Cl)cncc1Cl` [Example 2] displayed an IC50 of 50 to 1000 nM. For `C[C@H](Oc1ccc2[nH]nc(/C(F)=C\c3ccc(CN4CCOCC4)nc3)c2c1)c1c(Cl)cncc1Cl` [Example 3] the value was 50 to 1000 nM. For `C[C@@H](Oc1ccc2[nH]nc(/C(F)=C/c3ccc(CN4CCOCC4)nc3)c2c1)c1c(Cl)cncc1Cl` [Example 4] the value was 50 to 1000 nM; for `C[C@H](Oc1ccc2[nH]nc(/C(F)=C/c3ccc(CN4CCOCC4)nc3)c2c1)c1c(Cl)cncc1Cl` [Example 5], 50 to 1000 nM.

Regarding `C[C@H](Oc1ccc2[nH]nc(/C(O)=C/c3ccc(CN4CCOCC4)nc3)c2c1)c1c(Cl)cncc1Cl` [Example 6], the IC50 was 50 to 1000 nM. Turning to `CC(Oc1ccc2[nH]nc(/C(F)=C/c3ccc(CN4CCC(CO)CC4)nc3)c2c1)c1c(Cl)cncc1Cl` (stereo not drawn) [Example 9], the IC50 is 10 to 50 nM. For `CC(Oc1ccc2[nH]nc(/C(F)=C/c3ccc(CNC4CCOCC4)nc3)c2c1)c1c(Cl)cncc1Cl` (stereo not drawn) [Example 10] the value was 10 to 50 nM. With `CC(Oc1ccc2[nH]nc(/C(F)=C/c3ccc(CNCCN4CCOCC4)nc3)c2c1)c1c(Cl)cncc1Cl` (stereo not drawn) [Example 11] the figure was 50 to 1000 nM; with `CC(Oc1ccc2[nH]nc(/C(F)=C/c3ccc(CN4CCC(O)C4)nc3)c2c1)c1c(Cl)cncc1Cl` (stereo not drawn) [Example 12], 10 to 50 nM; with `CC(Oc1ccc2[nH]nc(/C(F)=C/c3ccc(CN4CCOCC4)nn3)c2c1)c1c(Cl)cncc1Cl` (stereo not drawn) [Example 13], 50 to 1000 nM.

In turn, `CCN(Cc1ccc(/C(F)=C/c2n[nH]c3ccc(O[C@H](C)c4c(Cl)cncc4Cl)cc23)cn1)C1CCOCC1` [Example 18b] showed an IC50 of at most 10 nM. With `C[C@H](Oc1ccc2[nH]nc(/C=C(\F)c3ccc(CN4CCC(CO)CC4)nc3)c2c1)c1c(Cl)cncc1Cl` [Example 22], the IC50 fell in the range of 10 to 50 nM. With `C[C@H](Oc1ccc2[nH]nc(/C=C(\F)c3ccc(CN4CCC(O)C4)nc3)c2c1)c1c(Cl)cncc1Cl` (stereo partly drawn) [Example 23] the figure was at most 10 nM; with `C[C@@H](Oc1ccc2[nH]nc(/C=C(\F)c3ccc(CN[C@H]4C[C@H](O)C4)nc3)c2c1)c1c(Cl)cncc1Cl` [Example 26], 10 to 50 nM. The compound `C[C@@H](Oc1ccc2[nH]nc(/C=C(\F)c3ccc(CN4CCN(CCO)CC4)nc3)c2c1)c1c(Cl)cncc1Cl` [Example 27] displayed an IC50 of at most 10 nM.

In turn, `C[C@@H](Oc1ccc2[nH]nc(/C=C(\F)c3ccc(CN4CCC(O)C4)nc3)c2c1)c1c(Cl)cncc1Cl` (stereo partly drawn) [Example 31] came in with an IC50 of at most 10 nM. For `C[C@@H](Oc1ccc2[nH]nc(/C=C(\F)c3ccc(OC4CCOCC4)nc3)c2c1)c1c(Cl)cncc1Cl` [Example 36] the value was 50 to 1000 nM. For `C[C@@H](Oc1ccc2[nH]nc(/C=C(\F)c3ccc(O[C@H]4CCOC4)nc3)c2c1)c1c(Cl)cncc1Cl` [Example 37] the value was 50 to 1000 nM; for `C[C@@H](Oc1ccc2[nH]nc(/C=C(\F)c3ccc(OC4CCNCC4)nc3)c2c1)c1c(Cl)cncc1Cl` [Example 43], at most 10 nM. With `CC(Oc1ccc2[nH]nc(/C=C/c3ccc(CN4CCOCC4)nc3)c2c1)c1c(Cl)cncc1Cl` (stereo not drawn) [Example 48] the figure was at most 10 nM.

With `CC(Oc1ccc2[nH]nc(/C=C/c3cncc(CN4CCOCC4)c3)c2c1)c1c(Cl)cncc1Cl` (stereo not drawn) [Example 50], the IC50 was at most 10 nM.

`CC(Oc1ccc2[nH]nc(/C=C/c3cnc(CN4CCOCC4)nc3)c2c1)c1c(Cl)cncc1Cl` (stereo not drawn) [Example 51] showed an IC50 of at most 10 nM. For `CC(Oc1ccc2[nH]nc(/C=C/c3ncc(CN4CCOCC4)cn3)c2c1)c1c(Cl)cncc1Cl` (stereo not drawn) [Example 52] the value was 50 to 1000 nM; for `CC(Oc1ccc2[nH]nc(/C=C/c3ccc(CN4CCOCC4)cc3Cl)c2c1)c1c(Cl)cncc1Cl` (stereo not drawn) [Example 55], 50 to 1000 nM; for `CC(Oc1ccc2[nH]nc(/C=C/c3ccc(CN4CCOCC4)c4ccccc34)c2c1)c1c(Cl)cncc1Cl` (stereo not drawn) [Example 56], 50 to 1000 nM. For `Cc1cc(/C=C/c2n[nH]c3ccc(OC(C)c4c(Cl)cncc4Cl)cc23)ccc1CN1CCOCC1` (stereo not drawn) [Example 58] the value was 50 to 1000 nM; for `CC(Oc1ccc2[nH]nc(/C=C/c3ccc(CN4CCOCC4)cc3C#N)c2c1)c1c(Cl)cncc1Cl` (stereo not drawn) [Example 60], 50 to 1000 nM. The compound `CC(Oc1ccc2[nH]nc(/C=C/c3cc(N)c(CN4CCOCC4)cc3F)c2c1)c1c(Cl)cncc1Cl` (stereo not drawn) [Example 61] had an IC50 of 50 to 1000 nM. For `CC(Oc1ccc2[nH]nc(/C=C/c3ccc(CN4CCOCC4)c(C(F)(F)F)c3)c2c1)c1c(Cl)cncc1Cl` (stereo not drawn) [Example 64] the value was 50 to 1000 nM; for `[2H]C([2H])(c1ccc(/C=C/c2n[nH]c3ccc(OC(C)c4c(Cl)cncc4Cl)cc23)nn1)N1CCOCC1` (stereo not drawn) [Example 65], at most 10 nM; for `CC(Oc1ccc2[nH]nc(/C=C/c3ccc(CN4CCOCC4)nn3)c2c1)c1c(Cl)cncc1Cl` (stereo not drawn) [Example 66], at most 10 nM. For `C[C@@H](Oc1ccc2[nH]nc(/C=C/c3ccc(CN4CCOCC4)nn3)c2c1)c1c(Cl)cncc1Cl` [Example 67] the value was at most 10 nM; for `C[C@@H](Oc1ccc2[nH]nc(/C=C/c3ccc(CNC4CCOCC4)nn3)c2c1)c1c(Cl)cncc1Cl` [Example 68], at most 10 nM. With `C[C@@H](Oc1ccc2[nH]nc(/C=C/c3ccc(CN4CCC(O)C4)nn3)c2c1)c1c(Cl)cncc1Cl` (stereo partly drawn) [Example 69] the figure was at most 10 nM; with `CC(Oc1ccc2[nH]nc(/C=C/c3ccc(N4CCN(C)CC4)nc3)c2c1)c1c(Cl)cncc1Cl` (stereo not drawn) [Example 71], 10 to 50 nM; with `CC(Oc1ccc2[nH]nc(/C=C/c3ccc(CN4CCC(O)CC4)cc3)c2c1)c1c(Cl)cncc1Cl` (stereo not drawn) [Example 72], at most 10 nM. As to `CC(Oc1ccc2[nH]nc(/C=C/c3ccc(CN4CC[C@@H](N(C)C)C4)cc3)c2c1)c1c(Cl)cncc1Cl` (stereo partly drawn) [Example 73], the IC50 was at most 10 nM. With `CC(Oc1ccc2[nH]nc(/C=C/c3ccc(CN4CCC(CO)CC4)cc3)c2c1)c1c(Cl)cncc1Cl` (stereo not drawn) [Example 74] the figure was at most 10 nM; with `CC(Oc1ccc2[nH]nc(/C=C/c3ccc(CNC4CCOCC4)cc3)c2c1)c1c(Cl)cncc1Cl` (stereo not drawn) [Example 78], at most 10 nM; with `CC(Oc1ccc2[nH]nc(/C=C/c3ccc(CN4CCc5ccccc5C4)cc3)c2c1)c1c(Cl)cncc1Cl` (stereo not drawn) [Example 80], 50 to 1000 nM. For `CC(Oc1ccc2[nH]nc(/C=C/c3ccc(CN4CCCCC4)cc3)c2c1)c1c(Cl)cncc1Cl` (stereo not drawn) [Example 81] the value was at most 10 nM. For `CC(Oc1ccc2[nH]nc(/C=C/c3ccc(CN4CCC(c5ccccc5)CC4)cc3)c2c1)c1c(Cl)cncc1Cl` (stereo not drawn) [Example 82] the value was 50 to 1000 nM.

`CC(Oc1ccc2[nH]nc(/C=C/c3ccc(CN4CCN(c5ccccc5)CC4)cc3)c2c1)c1c(Cl)cncc1Cl` (stereo not drawn) [Example 83]: the concentration for half-maximal inhibition (IC50) is 50 to 1000 nM. With `CC(Oc1ccc2[nH]nc(/C=C/c3ccc(CN(CCN(C)C)Cc4ccccc4)cc3)c2c1)c1c(Cl)cncc1Cl` (stereo not drawn) [Example 86] the figure was 50 to 1000 nM; with `CC(Oc1ccc2[nH]nc(/C=C/c3ccc(CNCc4ccccc4)cc3)c2c1)c1c(Cl)cncc1Cl` (stereo not drawn) [Example 87], 50 to 1000 nM; with `CC(Oc1ccc2[nH]nc(/C=C/c3ccc(CN4CCOC(CO)C4)cc3)c2c1)c1c(Cl)cncc1Cl` (stereo not drawn) [Example 88], 10 to 50 nM. With `CC(Oc1ccc2[nH]nc(/C=C/c3ccc(CNCCN4CCOCC4)cc3)c2c1)c1c(Cl)cncc1Cl` (stereo not drawn) [Example 89] the figure was at most 10 nM; with `CC(Oc1ccc2[nH]nc(/C=C/c3ccc(CN4CCC(Cc5ccccc5)CC4)cc3)c2c1)c1c(Cl)cncc1Cl` (stereo not drawn) [Example 90], 50 to 1000 nM; with `CCN(Cc1ccccc1)Cc1ccc(/C=C/c2n[nH]c3ccc(OC(C)c4c(Cl)cncc4Cl)cc23)cc1` (stereo not drawn) [Example 91], 50 to 1000 nM.

`CC(Oc1ccc2[nH]nc(/C=C/c3ccc(CN4CCN(C)CC4)cc3)c2c1)c1c(Cl)cncc1Cl` (stereo not drawn) [Example 93] yielded a half-inhibitory concentration (IC50) of 10 to 50 nM. On to `CC(Oc1ccc2[nH]nc(/C=C/c3ccc(CN(C)Cc4ccccc4)cc3)c2c1)c1c(Cl)cncc1Cl` (stereo not drawn) [Example 94], for which the IC50 was 50 to 1000 nM. For `CCN(Cc1ccccc1)Cc1ccc(/C=C/c2n[nH]c3ccc(OC(C)c4c(Cl)cncc4Cl)cc23)cc1` (stereo not drawn) [Example 95] the value was 50 to 1000 nM; for `CC1CN(Cc2ccc(/C=C/c3n[nH]c4ccc(OC(C)c5c(Cl)cncc5Cl)cc34)cc2)CCN1` (stereo not drawn) [Example 97], at most 10 nM; for `CC(Oc1ccc2[nH]nc(/C=C/c3ccc(CNc4ccccc4)cc3)c2c1)c1c(Cl)cncc1Cl` (stereo not drawn) [Example 99], 50 to 1000 nM. With `CC(Oc1ccc2[nH]nc(/C=C/c3ccc(CN4CCCOCC4)cc3)c2c1)c1c(Cl)cncc1Cl` (stereo not drawn) [Example 100] the figure was at most 10 nM; with `CC(Oc1ccc2[nH]nc(/C=C/c3ccc(CN4CCCC(CO)C4)cc3)c2c1)c1c(Cl)cncc1Cl` (stereo not drawn) [Example 101], at most 10 nM. With `CC(Oc1ccc2[nH]nc(/C=C/c3ccc(CN4CCN(C(C)C)CC4)cc3)c2c1)c1c(Cl)cncc1Cl` (stereo not drawn) [Example 102] the figure was at most 10 nM.
